Measurements from US20070059294A1, “Therapeutiv preparation for hematopoietic disease” (priority 2003, published 2007).

How the values were obtained:
Format in all cases: cell-based, mouse
syno^−/− MEFs [1] = assay: TUNEL apoptosis assay of MEFs treated with apoptotic stimuli; details: thapsigargin 1 μM 48 h, tunicamycin 10 ng/ml 48 h; for proportion of apoptotic (TUNEL-positive) cells: syno^−/− MEFs, low serum (1% FCS), anti-Fas 1 μg/ml 48 h
Protocol: (§1) Apoptosis can be induced through several pathways. To identify the apoptotic pathway that describes Synoviolin involvement, mouse embryonic fibroblasts (MEFs) isolated from syno^−/− and wild-type mice were treated in vitro with the following four apoptotic stimuli, monoclonal anti-Fas antibodies (Abs), gamma-irradiation, tunicamycin (N-glycosylation inhibitor), and thapsigargin (Ca^2-ATPase inhibitor). Under control conditions, the proportion of syno^−/− MEF apoptotic cells was higher (16±4%) than MEF wild-type (6±2%, FIG. 5A). […] Moreover, the sensitivity against ER stress-induced agents was increased in a dose-dependent fashion (FIG. 5B).
(§2) Tissues were prepared as described above. Conditioned culture cells were fixed in 10% formalin for 15 minutes and attached to APS-coated slide glasses. These specimens were subjected to TUNEL assay. TUNEL assay was performed according to the protocol provided by the manufacturer (Apoptosis in situ detection kit; Wako, Osaka, Japan).
(§3) MEFs were isolated from E10.5 embryos of syno^−/− and wild-type mice by trypsin digestion after removal of the head and internal organs. Isolated cells were cultured in Dulbecco's modified Eagle's medium containing 20% fetal calf serum (FCS).
(§4) (A) MEFs derived from syno^+/+ and syno^−/− mice were treated with various apoptotic stimuli, including anti-Fas monoclonal antibodies (1μg/ml for 48 hours), X-irradiation (6 Gy for 72 hours), thapsigargin (1 μM for 48 hours) and tunicamycin (10 ng/ml for 48 hours), or untreated (−), in low serum (1%FCS) medium. Apoptotic cells were detected by TUNEL analysis. (B) syno^+/+ and syno^−/− MEFs were treated with indicated dose of stimuli. Apoptosis was measured by quantitation of DNA fragmentation using the cell death detection ELISA method (Boehringer Mannheim). *p<0.01. The number of apoptotic syno^−/− MEFs was higher in cultures treated with thapsigargin and tunicamycin compared with the respective syno^+/+ MEFs. (C) syno^+/+ and syno^−/− MEFs were infected with adenovirus vector (100 moi) carrying LacZ(−) or synoviolin gene(+), then treated with the same aforementioned agents. In syno^−/− MEFs, ER-stress induced apoptosis was rescued by infection with synoviolin.

wild-type MEFs = assay: as above; details: low serum (1% FCS), anti-Fas 1 μg/ml 48 h, thapsigargin 1 μM 48 h, tunicamycin 10 ng/ml 48 h
Protocol: as §1, §2, §3, §4

syno^−/− MEFs [2] = assay: DNA fragmentation, cell death detection ELISA; details: indicated doses of stimuli, FIG. 5B, p<0.01
Protocol: as §4

Compound | proportion of apoptotic (TUNEL-positive) cells (syno^−/− MEFs [1]) | increase in number of TUNEL-positive syno^−/− MEFs compared with wild-type MEFs (syno^−/− MEFs [1]) | proportion of apoptotic (TUNEL-positive) cells (wild-type MEFs) | number of apoptotic syno^−/− MEFs compared with the respective syno^+/+ MEFs (syno^−/− MEFs [2])
C/C=C(/C)C(=O)O[C@H]1C(C)=C2[C@H]([C@@H]1OC(=O)CCCCCCC)[C@@](C)(OC(C)=O)C[C@H](OC(=O)CCC)[C@@]1(O)[C@H]2OC(=O)[C@@]1(C)O [thapsigargin] | 90±1% | 2.4 fold | 38±7% | higher
tunicamycin | 56±3% | 1.7 fold | 33±7% | higher
